Measurements taken from patent publication US20050209278A1, “Piperidinyl- and piperazinyl-sulfonylmethyl hydroxamic acids and their use as protease inhibitors” (priority 2002, published 2005).

Biological target: T1, MMP-1 (Homo sapiens, UniProt P03956)
T1 construct: made in house; host or cells: MMP-1-transfected HT-1080 cells (spent media)
T1 sequence (P03956 100-469): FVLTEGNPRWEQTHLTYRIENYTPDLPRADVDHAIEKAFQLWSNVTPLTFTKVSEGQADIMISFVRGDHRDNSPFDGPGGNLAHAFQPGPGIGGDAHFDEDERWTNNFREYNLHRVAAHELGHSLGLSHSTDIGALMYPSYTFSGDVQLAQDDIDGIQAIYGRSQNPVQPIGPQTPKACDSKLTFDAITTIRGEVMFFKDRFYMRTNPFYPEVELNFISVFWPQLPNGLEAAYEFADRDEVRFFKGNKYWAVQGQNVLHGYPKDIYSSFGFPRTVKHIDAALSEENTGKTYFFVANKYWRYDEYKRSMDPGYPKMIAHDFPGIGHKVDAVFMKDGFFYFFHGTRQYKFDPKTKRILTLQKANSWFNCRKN
Test: In vitro MMP inhibition, IC50 determination (fluorogenic substrate I)
Format: biochemical
Details: value in parentheses; read-out: MMP-1 (IC-50)

IC50, > 10 µM:
CCCCOc1ccc(N2CCN(S(=O)(=O)C3(C(=O)NO)CCN(C(=O)CCC)CC3)CC2)cc1 [Example 290]

Same assay, conditions: value in parenthesis; read-out: MMP-1 (IC-50)

IC50, > 10 µM:
COCCN1CCC(C(=O)NO)(S(=O)(=O)N2CCN(c3ccc(C#N)cc3)CC2)CC1 [Example 186]
CCC(CC)Cc1ccc(N2CCN(S(=O)(=O)C3(C(=O)NO)CCN(CCOC)CC3)CC2)cc1 [Example 188]
CCOCCCc1ccc(N2CCN(S(=O)(=O)C3(C(=O)NO)CCN(CCOC)CC3)CC2)cc1 [Example 179]
COCCN1CCC(C(=O)NO)(S(=O)(=O)N2CCN(c3ccc(CC4CCCCC4)cc3)CC2)CC1 [Example 181]
CCOc1ccc(N2CCN(S(=O)(=O)C3(C(=O)NO)CCN(CCOC)CC3)CC2)cc1F [Example 184]
COCCN1CCC(C(=O)NO)(S(=O)(=O)N2CCN(c3ccc(CCC4CCCC4)cc3)CC2)CC1 [Example 182]
CCc1cnc(N2CCN(S(=O)(=O)C3(C(=O)NO)CCN(CCOC)CC3)CC2)nc1 [Example 187]
CCCOc1ccc(N2CCN(S(=O)(=O)C3(C(=O)NO)CCN(CCOC)CC3)CC2)cc1F [Example 185]
COCCCc1ccc(N2CCN(S(=O)(=O)C3(C(=O)NO)CCN(CCOC)CC3)CC2)cc1 [Example 180]
COCCN1CCC(C(=O)NO)(S(=O)(=O)N2CCN(c3ccc(CC4CCC4)cc3)CC2)CC1 [Example 183]
